In experiment [1] the target is T1, P2X purinoceptor 7 (Homo sapiens, UniProt Q99572).
T1 sequence (Q99572 whole entry): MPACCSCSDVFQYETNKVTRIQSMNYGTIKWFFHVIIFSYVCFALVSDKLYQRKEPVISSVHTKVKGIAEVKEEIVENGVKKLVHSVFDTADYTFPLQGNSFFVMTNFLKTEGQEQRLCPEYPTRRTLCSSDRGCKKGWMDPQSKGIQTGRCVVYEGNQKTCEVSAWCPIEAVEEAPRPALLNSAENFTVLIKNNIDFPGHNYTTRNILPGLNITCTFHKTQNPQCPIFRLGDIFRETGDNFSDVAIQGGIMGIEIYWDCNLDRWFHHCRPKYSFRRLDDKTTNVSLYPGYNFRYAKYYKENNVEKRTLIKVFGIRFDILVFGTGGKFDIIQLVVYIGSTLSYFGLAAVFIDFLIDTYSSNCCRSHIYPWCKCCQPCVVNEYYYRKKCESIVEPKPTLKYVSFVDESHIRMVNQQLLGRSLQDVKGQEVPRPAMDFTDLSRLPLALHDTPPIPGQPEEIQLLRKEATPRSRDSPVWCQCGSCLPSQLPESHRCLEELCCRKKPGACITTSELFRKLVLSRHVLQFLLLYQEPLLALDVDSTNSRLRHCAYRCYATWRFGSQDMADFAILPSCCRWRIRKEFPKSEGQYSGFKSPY
Kind of experiment: Antagonist activity at P2X7 receptor in human THP1 cells assessed as inhibition of BzATP-induced YO-PRO-1 Iodide uptake measured every 30 secs for 1 hr by fluorescence assay. Type of experiment: cell-based.

The target of experiment [2] is T1, P2X purinoceptor 7. As to the kind of experiment: Antagonist activity at P2X7 receptor in LPS-stimulated human THP1 cells assessed as inhibition of LPS/BzATP-induced IL-1beta release preincubated for 30 mins followed by BzATP addition measured after 30 mins by ELISA. On the technique in general: ELISA stands for enzyme-linked immunosorbent assay.
The target of experiment [3] is T2, P2X purinoceptor 7 (Homo sapiens) (UniProt Q99572).
T2 sequence (whole entry): T1 sequence (Q99572 whole entry)
Kind of experiment: Ratio of IC50 for P2X7 receptor in human THP1 cells assessed as inhibition of BzATP-induced YO-PRO-1 Iodide uptake to IC50 for P2X7 receptor in LPS-stimulated human THP1 cells assessed as inhibition of LPS/BzATP-induced IL-1beta release. Type of experiment: cell-based.

In the case of `COc1cccc(N/C(=N/C#N)NCC23CC4CC(CC(C4)C2)C3)c1`, on P2X purinoceptor 7 [1], the IC50 was 58 nM. On the same count and under the same terms, the result for `N#C/N=C(/NCCc1ccccc1)NC12CC3CC(CC(C3)C1)C2` reads over 10000 nM.

As to `COc1ccccc1CN/C(=N/C#N)NCC12CC3CC(CC(C3)C1)C2`, the half-inhibitory concentration (IC50) at P2X purinoceptor 7 [1] worked out at 562 nM. Take `N#C/N=C(/NCc1cccc(F)c1)NCC12CC3CC(CC(C3)C1)C2`: the 50% inhibitory concentration (IC50) at P2X purinoceptor 7 [2] worked out at 132 nM; at P2X purinoceptor 7 [1], 708 nM. In experiment [3], the Ratio IC50 turned out to be 5.4. On to `N#C/N=C(\NCC12CC3CC(CC(C3)C1)C2)Nc1ccccc1F`, for which, at P2X purinoceptor 7 [1], the IC50 is 58 nM.

As to `COc1ccc(CN/C(=N/C#N)NCC23CC4CC(CC(C4)C2)C3)cc1`, the half-maximal inhibitory concentration (IC50) at P2X purinoceptor 7 [1] was over 10000 nM. Still for that read-out and setting: the result for `N#C/N=C(\NCC12CC3CC(CC(C3)C1)C2)Nc1ccccc1` reads 100 nM.

For `N#C/N=C(\NCC12CC3CC(CC(C3)C1)C2)Nc1cccc2ncccc12`, the results for the IC50 at P2X purinoceptor 7 [2] and on P2X purinoceptor 7 [1] were 2 nM and 18 nM, respectively. Also, the Ratio IC50 in experiment [3] turned out to be 9. Regarding `N#C/N=C(/NCc1ccccn1)NCC12CC3CC(CC(C3)C1)C2`, the concentration for half-maximal inhibition (IC50) was found to be 138 nM at P2X purinoceptor 7 [2] and 234 nM at P2X purinoceptor 7 [1]. The Ratio IC50 in experiment [3] is 1.7. For `N#C/N=C(\NCCC12CC3CC(CC(C3)C1)C2)Nc1ccccc1`, the IC50 on P2X purinoceptor 7 [1] is over 10000 nM. Still for that read-out and setting: to `N#C/N=C(\NCC12CC3CC(CC(C3)C1)C2)Nc1ccc(F)cc1` belongs 174 nM; to `N#C/N=C(/Nc1ccccc1)NC12CC3CC(CC(C3)C1)C2`, 2460 nM. Turning to `N#C/N=C(/NCc1ccncc1)NCC12CC3CC(CC(C3)C1)C2`, the IC50 on P2X purinoceptor 7 [2] was 389 nM; on P2X purinoceptor 7 [1], 447 nM. For the same molecule, the Ratio IC50 in experiment [3] came to 1.2.

For `N#C/N=C(/NCc1ccccc1)NCC12CC3CC(CC(C3)C1)C2`, the half-inhibitory concentration (IC50) turned out to be 79 nM on P2X purinoceptor 7 [2] and 407 nM at P2X purinoceptor 7 [1]. Moreover, the Ratio IC50 in experiment [3] amounted to 5.2.

By IC50 is commonly meant the midpoint of a concentration-inhibition curve.

For the origin of these results see ChEMBL document CHEMBL4011591, “Discovery and pharmacological evaluation of a novel series of adamantyl cyanoguanidines as P2X7 receptor antagonists” (Eur J Med Chem, 2017).
